Reference: ChEMBL document CHEMBL1201862, “PubChem BioAssay data set” (2004)
Values joined by “and” are separate entries in the source; they are usually repeats but may differ in a detail not shown here. Equal entries are not always repeated. Active and inactive are the calls of the source.

Tests used:
[1] = biological target: FAD-linked sulfhydryl oxidase ALR (Homo sapiens, UniProt P55789); test: ALR-catalysed DTT oxidation blockers – biochemical, H2O2 detection, luminescence, cherry-pick, dose response (AID 493248)
[2] = biological target: T1, Corticotropin-releasing factor receptor 2/Corticotropin-releasing factor-binding protein (Homo sapiens, UniProt P24387+Q13324); test: Dose Response confirmation of uHTS hits for small molecule antagonists of the CRF-binding protein and CRF-R2 receptor complex.; format: functional; details: read-out: IC50_Mean
T1 sequence (Q13324 whole entry): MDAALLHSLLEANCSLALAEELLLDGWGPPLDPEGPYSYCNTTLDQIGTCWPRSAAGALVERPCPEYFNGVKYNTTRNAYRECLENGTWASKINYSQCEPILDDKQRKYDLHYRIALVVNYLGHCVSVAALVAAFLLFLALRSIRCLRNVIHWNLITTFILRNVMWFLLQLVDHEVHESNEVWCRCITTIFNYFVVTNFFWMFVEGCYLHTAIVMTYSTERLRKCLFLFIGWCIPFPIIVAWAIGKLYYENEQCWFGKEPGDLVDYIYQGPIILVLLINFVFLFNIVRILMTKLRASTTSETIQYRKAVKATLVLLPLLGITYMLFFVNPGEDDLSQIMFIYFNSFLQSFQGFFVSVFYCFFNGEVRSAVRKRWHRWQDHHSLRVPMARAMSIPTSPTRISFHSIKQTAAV
T1 sequence (P24387 whole entry): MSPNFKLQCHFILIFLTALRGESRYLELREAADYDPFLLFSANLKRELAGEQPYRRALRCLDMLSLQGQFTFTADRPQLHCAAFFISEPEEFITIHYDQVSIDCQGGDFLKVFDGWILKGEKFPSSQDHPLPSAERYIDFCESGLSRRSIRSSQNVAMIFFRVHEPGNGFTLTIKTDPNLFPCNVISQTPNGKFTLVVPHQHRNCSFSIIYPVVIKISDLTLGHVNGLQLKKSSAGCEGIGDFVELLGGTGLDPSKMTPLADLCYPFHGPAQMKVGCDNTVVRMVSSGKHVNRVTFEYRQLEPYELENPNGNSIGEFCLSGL

[3] = biological target: T1, Corticotropin-releasing factor receptor 2/Corticotropin-releasing factor-binding protein; test: activators of CRF receptor 2 with binding protein – uHTS hits, confirmation (AID 602473); format: functional; details: read-out: EC50_Mean
[4] = biological target: Cytochrome P450 3A4 (Homo sapiens, UniProt P08684); details: Potency;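 also: confirmatory qHTS run detecting inhibitors and substrates of CYP3A4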
[5] = biological target: Induced myeloid leukemia cell differentiation protein Mcl-1 (Homo sapiens, UniProt Q07820); format: functional
[6] = biological target: T2, Leucine aminopeptidase (Plasmodium falciparum 3D7, UniProt Q8IL11); test: P. falciparum M17LAP inhibitors, primary screen, biochemical, fluorogenic H-Leu-NHMec substrate, 1536-well (AID 1619); format: functional
T2 sequence (Q8IL11 whole entry): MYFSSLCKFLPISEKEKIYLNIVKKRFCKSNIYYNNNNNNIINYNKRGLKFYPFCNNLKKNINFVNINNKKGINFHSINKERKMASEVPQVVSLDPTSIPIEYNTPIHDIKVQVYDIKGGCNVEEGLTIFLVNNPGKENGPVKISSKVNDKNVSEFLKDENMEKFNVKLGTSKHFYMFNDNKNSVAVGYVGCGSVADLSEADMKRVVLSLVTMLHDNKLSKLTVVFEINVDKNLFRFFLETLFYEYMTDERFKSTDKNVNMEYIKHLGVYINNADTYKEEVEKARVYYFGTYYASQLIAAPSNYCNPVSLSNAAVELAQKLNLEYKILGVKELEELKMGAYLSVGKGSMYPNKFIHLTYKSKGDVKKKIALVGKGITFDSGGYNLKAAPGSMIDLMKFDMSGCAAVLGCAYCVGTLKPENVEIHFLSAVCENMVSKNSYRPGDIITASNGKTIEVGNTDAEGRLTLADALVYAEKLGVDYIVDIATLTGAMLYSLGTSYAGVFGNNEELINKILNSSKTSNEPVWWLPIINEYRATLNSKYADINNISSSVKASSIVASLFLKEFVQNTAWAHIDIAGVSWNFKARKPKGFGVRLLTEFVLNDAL

[7] = biological target: Fatty acid synthase (Homo sapiens, UniProt P49327); test: inhibition of human FAS-TE enzyme activity – biochemical, kinetic fluorescence intensity, dose response (AID 624326); format: functional;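 also: rate of fluorescence rise from hydrolysis of a fluorogenic O-methyl fluorescein ester substrate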
[8] = Trypanosoma cruzi growth suppression in host cells – NIH3T3 host cells, beta-gal luminescence, confirmation (AID 2044); format: functional, cell-based;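 also: intracellular parasites grown in NIH/3T3 mouse fibroblasts as host cells; luminescent beta-galactosidase reporter signal from transgenic T. cruzi replicating inside host cells; inhibitors lower the luminescence signal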
[9] = NIH3T3 cell viability loss – ATP luminescence, mouse fibroblasts, counter-screen, dose response (AID 2010); format: functional, cell-based;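 also: cells exposed to compound for about 90 hours before reading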

Sequence of FAD-linked sulfhydryl oxidase ALR (P55789 whole entry): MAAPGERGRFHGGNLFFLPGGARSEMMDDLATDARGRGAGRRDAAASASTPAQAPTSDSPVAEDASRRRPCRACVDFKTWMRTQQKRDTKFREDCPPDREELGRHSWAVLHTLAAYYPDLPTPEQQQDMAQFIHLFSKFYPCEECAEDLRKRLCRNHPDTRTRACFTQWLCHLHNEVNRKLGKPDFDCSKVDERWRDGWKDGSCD
Sequence of Cytochrome P450 3A4 (P08684 whole entry): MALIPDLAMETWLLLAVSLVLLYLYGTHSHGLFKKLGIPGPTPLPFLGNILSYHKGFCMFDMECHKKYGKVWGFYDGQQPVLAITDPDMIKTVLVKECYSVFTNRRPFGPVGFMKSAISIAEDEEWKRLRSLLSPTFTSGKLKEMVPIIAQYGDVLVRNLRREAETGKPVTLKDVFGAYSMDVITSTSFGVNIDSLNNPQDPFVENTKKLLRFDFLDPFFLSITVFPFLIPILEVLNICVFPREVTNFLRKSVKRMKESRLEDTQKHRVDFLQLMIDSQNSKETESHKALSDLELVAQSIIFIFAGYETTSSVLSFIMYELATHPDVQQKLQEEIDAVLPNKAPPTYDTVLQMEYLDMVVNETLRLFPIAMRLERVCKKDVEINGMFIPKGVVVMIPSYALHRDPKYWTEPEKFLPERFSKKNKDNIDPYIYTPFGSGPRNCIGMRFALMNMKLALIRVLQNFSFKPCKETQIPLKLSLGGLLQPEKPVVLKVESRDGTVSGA
Sequence of Fatty acid synthase (P49327 whole entry): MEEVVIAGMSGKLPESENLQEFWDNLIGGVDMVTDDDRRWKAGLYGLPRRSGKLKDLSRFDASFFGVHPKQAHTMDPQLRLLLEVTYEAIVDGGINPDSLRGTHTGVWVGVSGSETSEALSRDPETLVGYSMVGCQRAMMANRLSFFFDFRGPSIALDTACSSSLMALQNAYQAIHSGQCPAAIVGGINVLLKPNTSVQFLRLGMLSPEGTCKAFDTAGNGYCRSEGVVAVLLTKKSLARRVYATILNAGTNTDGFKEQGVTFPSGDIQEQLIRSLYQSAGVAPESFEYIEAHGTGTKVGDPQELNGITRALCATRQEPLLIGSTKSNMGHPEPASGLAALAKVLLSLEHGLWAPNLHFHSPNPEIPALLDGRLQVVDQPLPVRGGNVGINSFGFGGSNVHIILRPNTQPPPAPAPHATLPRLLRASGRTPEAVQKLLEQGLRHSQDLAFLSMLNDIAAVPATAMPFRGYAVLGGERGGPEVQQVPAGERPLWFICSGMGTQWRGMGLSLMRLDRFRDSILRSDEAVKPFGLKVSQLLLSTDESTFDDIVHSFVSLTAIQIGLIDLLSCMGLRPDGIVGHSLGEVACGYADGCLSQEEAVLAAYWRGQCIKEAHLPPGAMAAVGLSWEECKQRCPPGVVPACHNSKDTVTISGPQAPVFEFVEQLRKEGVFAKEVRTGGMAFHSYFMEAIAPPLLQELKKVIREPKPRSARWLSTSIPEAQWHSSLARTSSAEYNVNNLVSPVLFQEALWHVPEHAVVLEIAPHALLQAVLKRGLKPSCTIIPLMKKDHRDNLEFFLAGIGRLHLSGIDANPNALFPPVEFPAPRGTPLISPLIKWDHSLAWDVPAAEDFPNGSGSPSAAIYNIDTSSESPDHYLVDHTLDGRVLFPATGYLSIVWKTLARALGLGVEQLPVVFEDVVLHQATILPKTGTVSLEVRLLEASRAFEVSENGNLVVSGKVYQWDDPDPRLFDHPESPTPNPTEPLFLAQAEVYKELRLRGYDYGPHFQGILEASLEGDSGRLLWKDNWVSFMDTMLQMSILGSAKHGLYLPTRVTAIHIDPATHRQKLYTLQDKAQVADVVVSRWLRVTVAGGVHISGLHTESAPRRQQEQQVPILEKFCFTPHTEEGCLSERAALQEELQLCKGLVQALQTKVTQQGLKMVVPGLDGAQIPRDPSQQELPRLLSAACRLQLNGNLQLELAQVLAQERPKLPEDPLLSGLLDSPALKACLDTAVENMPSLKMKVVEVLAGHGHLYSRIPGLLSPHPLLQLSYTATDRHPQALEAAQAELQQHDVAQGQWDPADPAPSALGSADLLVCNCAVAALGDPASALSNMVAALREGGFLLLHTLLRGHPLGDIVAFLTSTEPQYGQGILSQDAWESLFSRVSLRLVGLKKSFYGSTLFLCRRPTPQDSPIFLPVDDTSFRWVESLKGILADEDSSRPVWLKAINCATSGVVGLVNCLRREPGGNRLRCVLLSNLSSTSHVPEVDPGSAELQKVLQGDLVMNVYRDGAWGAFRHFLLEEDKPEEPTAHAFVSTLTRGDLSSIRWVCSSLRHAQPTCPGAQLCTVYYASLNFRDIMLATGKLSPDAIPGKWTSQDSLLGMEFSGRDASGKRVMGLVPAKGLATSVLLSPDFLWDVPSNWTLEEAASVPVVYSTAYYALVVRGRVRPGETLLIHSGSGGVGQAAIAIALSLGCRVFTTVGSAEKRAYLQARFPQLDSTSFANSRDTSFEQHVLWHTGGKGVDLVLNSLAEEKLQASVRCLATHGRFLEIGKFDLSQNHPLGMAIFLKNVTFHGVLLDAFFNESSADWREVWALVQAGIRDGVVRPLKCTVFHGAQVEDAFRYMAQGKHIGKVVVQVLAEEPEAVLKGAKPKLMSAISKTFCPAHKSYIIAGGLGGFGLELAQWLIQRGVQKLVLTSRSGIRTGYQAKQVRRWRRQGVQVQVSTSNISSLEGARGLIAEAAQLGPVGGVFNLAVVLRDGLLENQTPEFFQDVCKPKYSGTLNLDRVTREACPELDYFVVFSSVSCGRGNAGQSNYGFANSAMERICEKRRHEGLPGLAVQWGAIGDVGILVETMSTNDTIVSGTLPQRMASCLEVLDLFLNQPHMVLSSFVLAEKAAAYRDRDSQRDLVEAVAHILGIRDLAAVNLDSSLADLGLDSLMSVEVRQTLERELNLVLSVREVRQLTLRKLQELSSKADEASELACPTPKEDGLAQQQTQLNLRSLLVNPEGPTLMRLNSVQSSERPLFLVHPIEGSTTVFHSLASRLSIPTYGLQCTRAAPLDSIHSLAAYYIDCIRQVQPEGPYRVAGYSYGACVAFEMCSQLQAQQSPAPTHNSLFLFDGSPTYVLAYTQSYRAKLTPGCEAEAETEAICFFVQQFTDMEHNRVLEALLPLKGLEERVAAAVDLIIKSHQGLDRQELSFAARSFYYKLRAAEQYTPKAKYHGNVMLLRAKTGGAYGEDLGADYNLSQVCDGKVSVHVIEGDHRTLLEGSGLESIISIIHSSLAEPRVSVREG
Sequence of Induced myeloid leukemia cell differentiation protein Mcl-1 (Q07820 whole entry): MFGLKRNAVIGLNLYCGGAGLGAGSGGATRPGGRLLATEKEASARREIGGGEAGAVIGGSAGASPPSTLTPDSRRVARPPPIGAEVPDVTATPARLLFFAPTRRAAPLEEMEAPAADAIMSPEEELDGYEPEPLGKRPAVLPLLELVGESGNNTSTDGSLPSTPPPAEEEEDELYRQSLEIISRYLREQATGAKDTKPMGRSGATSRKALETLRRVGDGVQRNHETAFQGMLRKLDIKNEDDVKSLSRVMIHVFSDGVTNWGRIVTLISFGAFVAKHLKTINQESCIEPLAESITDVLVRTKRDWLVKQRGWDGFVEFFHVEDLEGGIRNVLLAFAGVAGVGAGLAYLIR

For `CCCNC(=O)c1cc2c3ccccc3n(C)c2s1`, the AC50 [1] was 0.137 µM (active).

In the case of `CN(C)c1ccc(C(=O)NNC(=O)c2ccc(Cl)cc2)cc1`, the IC50 [2] is reported as > 47.1 µM (inactive) and the EC50 [3] is reported as > 53 µM (inactive).

In the case of `CC(=O)OC[C@@]1(O)C[C@]23CCC4c5ccoc5CC[C@@]4(C)C2CCC1C3` (some centres not stated), the AC50 [4] is reported as 31.6 µM (inconclusive).

For `OCC1OC(C#Cc2ccccc2)C=CC1O` (configuration not stated), the AC50 [4] was 3.16 µM (inconclusive) and 6.31 µM (inconclusive) (2×).

With `COC(=O)C1=C(C(=O)c2ccccc2)C(c2ccc(O)c(OC)c2)n2nnnc2N1` (configuration not stated) the IC50 [2] was > 47.1 µM (inactive) and the EC50 [3] was > 53 µM (inactive).

With `O=C(/C=C/c1ccccc1)c1ccc(NC2=NCCCS2)cc1` the IC50 [5] was 8.3 µM (active).

For `O=S(=O)(Nc1ccccc1O)c1ccc2[nH]c(O)nc2c1`, the AC50 [1] was 2.1 µM (active).

In the case of `O=C(O)C1CC=CCC1C(=O)Nc1ccccc1` (configuration not stated), the IC50 [6] is reported as 29 µM (active).

In the case of `Cc1ccc(N2C(=O)CC(NNC(=O)c3cccc(S(=O)(=O)N4CCCC4)c3)C2=O)cc1` (configuration not stated), the AC50 [1] is reported as 9.56 µM (active).

For `CN(C)S(=O)(=O)c1ccc(-c2csc(-c3cccnc3)n2)cc1`, the IC50 [7] was 3.34 µM (active).

In the case of `C=CCn1c(SCc2ccc(C(=O)O)cc2)nc2sc(C)c(C)c2c1=O`, the AC50 [1] is reported as 4.74 µM (active).

With `COc1ccc2c(C)cc(SCn3nnc4ccccc4c3=O)nc2c1` the IC50 [2] was > 47.1 µM (inactive) and the EC50 [3] was > 53 µM (inactive).

For `CCCn1c(-c2ccc(F)cc2)nc2c(NCCCN(CC)CC)nc(C)nc21`, the AC50 [4] was 20 µM (inconclusive).

For `Cn1c(N)c(C(=O)COC(=O)c2cc(C3CC3)nc3ccccc23)c(=O)n(C)c1=O`, the AC50 [4] was 39.8 µM (inconclusive).

With `Fc1ccc(OCCCCCn2ccnc2)cc1` the EC50 [8] was 1.67 µM (active), the EC50 [9] was > 60 µM (not active) and the IC50 [2] was > 47.1 µM (inactive). For the same molecule, the EC50 [3] was > 53 µM (inactive).

In the case of `COc1ccc(NC(=O)C(CC(=O)O)Cc2ccccc2)cc1` (configuration not stated), the IC50 [6] is reported as 28.1 µM (active).
